Activity calls are given as the source filed them.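 The calls were made as follows: active = AC50, the dose giving half-maximal effect, exceeds a fixed cutoff for a compound that rescues yeast growth under heat; inactive = the rest, inconclusive results apart.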

The term AC50 denotes the concentration at which the activity in the assay is half-maximal.

This assay concerns S. cerevisiae Burl-1 ts mutant growth, BacTiter-Glo, 38.5C 24 h. Description: restored growth of temperature-sensitive Burl-1 yeast – whole organism, S. cerevisiae, Burl-1 ts mutant, luminescence, counter-screen for SUMOylation pathway inhibitor project, dose response (AID 463199). A general note: A counterscreen serves to expose hits that act by an unwanted route or on another target.
Turning to `CCS(=O)(=O)N1CCC(C(=O)NCCCN2CCN(c3ccccc3F)CC2)CC1`, the AC50 was > 42 µM (inactive).

Take `Cc1ccc(NC(=S)NNC(=O)c2ccc(N3CCOCC3)c([N+](=O)[O-])c2)cc1C`: the AC50 was > 42 µM (inactive).

With `CCOC(=O)N1CCN(S(=O)(=O)c2ccc(C)c(C)c2)CC1`, the AC50 is > 42 µM (inactive).

On to `Cc1cc(NC(=O)CSc2ncn(-c3ccccc3)n2)no1`, for which the AC50 was > 42 µM (inactive).

As to `CCOCCCNC(=O)C(c1ccc(OC)cc1)N(Cc1ccc2c(c1)OCO2)C(=O)CNC(C)=O` (centres undefined), the AC50 was > 42 µM (inactive).

For the molecule `CCCNC(=O)Cn1sc2nc(C)cc(C)c2c1=O`, the AC50 was > 42 µM (inactive).

As to `COc1ccccc1-c1nc2ccccc2nc1-c1ccccc1OC`, the AC50 was > 42 µM (inactive).

Consider `OC(COc1ccccc1)Cn1c2ccccc2c2ccccc21` (centres undefined), for which the AC50 was > 42 µM (inactive).

Turning to `Cc1ccc(C(C(=O)Nc2ccc3c(c2)OCO3)N(C)C(=O)/C=C\c2ccc3c(c2)OCO3)cc1` (centres undefined), the AC50 is > 42 µM (inactive).

`CCCCCOC(=O)C1=C(C)N(C)C(=O)NC1c1cc(Br)c(O)c(OC)c1` (centres undefined): the AC50 is > 42 µM (inactive).

In the case of `C=CCNC(=O)c1cc(-c2cccnc2)nc2ccccc12`, the AC50 was > 42 µM (inactive).

Consider `CCOC(=O)C1=C(C)NC(=O)CC1c1cc2c(cc1[N+](=O)[O-])OCO2` (centres undefined), for which the AC50 is 22.3 µM.

Turning to `CC1CC(C)(C)NC(=S)N1CC(=O)NCc1ccc(F)cc1` (centres undefined), the AC50 is > 42 µM (inactive).

For `Cc1ccc(S(=O)(=O)Cc2ccc(C(=O)N3CCN(c4ccccn4)CC3)o2)cc1`, the AC50 was > 42 µM (inactive).

Consider `CC(=O)Nc1cccc(C(=O)OCC(=O)NCc2ccc(F)cc2)c1`, for which the AC50 was > 42 µM (inactive).

As to `Cc1sc2ncnc(Nc3ccccc3)c2c1C`, the AC50 was > 42 µM (inactive).

Consider `CCOC(=O)CNC(=O)c1c(C)nn(C)c1Cl`, for which the AC50 was > 42 µM (inactive).

For the molecule `N#Cc1cc2c(nc1SC1CCCCC1O)CCCC2` (centres undefined), the AC50 is > 42 µM (inactive).

`COc1c2ccoc2nc2c(OC)c(OC[C@@H](O)C(C)(C)O)ccc12`: the AC50 is > 42 µM (inactive).

On to `CCn1c(-c2ccccc2)c(C(=O)CC#N)c2ccccc21`, for which the AC50 was > 42 µM (inactive).

Regarding `COc1ccc(S(=O)(=O)N2CCN(c3ccc(F)cc3)CC2)cc1C(=O)N1CCOCC1`, the AC50 was > 42 µM (inactive).

Regarding `O=C(CCl)N(Cc1cc(=O)[nH]c2ccccc12)c1ccccc1`, the AC50 is > 42 µM (inactive).

`Cc1ccc2c(c1)N(CC(=O)NCCCN1CCN(C)CC1)C(=O)CO2`: the AC50 is > 42 µM (inactive).

Consider `NC(=O)CC(NC(=S)NCc1ccccc1)C(=O)O` (centres undefined), for which the AC50 was > 42 µM (inactive).

As to `CN(C)S(=O)(=O)c1ccc(C(=O)/C=C/c2cccnc2)cc1`, the AC50 was > 42 µM (inactive).

In the case of `COc1ccc(C(=O)NC(=S)Nc2ccc(CN3CCCCC3)cc2)cc1Cl`, the AC50 is > 42 µM (inactive).

With `CSc1ccc(CN2CCN(S(=O)(=O)Cc3ccccc3)CC2)cc1`, the AC50 was > 42 µM (inactive).

With `O=C(Nc1cc(F)ccc1F)C1CCCO1` (centres undefined), the AC50 is > 42 µM (inactive).

`O=S(=O)(Nc1ccc(-c2nc3cccnc3s2)cc1)c1cc(F)ccc1F`: the AC50 was > 42 µM (inactive).

Take `Cc1c(C(=O)NC(=S)Nc2ccccc2N2CCCC2)cccc1[N+](=O)[O-]`: the AC50 is > 42 µM (inactive).

Turning to `O=C(CCCCCn1c(=O)[nH]c2ccsc2c1=O)NCc1ccc(F)cc1`, the AC50 is > 42 µM (inactive).

As for `O=C(CCNC(=O)c1ccccc1)Nc1cccnc1`, the AC50 is > 42 µM (inactive).

Take `CN1C(=O)C(=Cc2ccc(N3CCCCC3)o2)C(=O)N(C)C1=S`: the AC50 is > 42 µM (inactive).

For the molecule `CCN(CC)CCNc1ncnc2c1[nH]c1ccc(OC)cc12`, the AC50 was > 42 µM (inactive).

Turning to `C/C(CC(=O)NC1CCCCC1)=N\NC(=O)Cc1ccc(-c2ccccc2)cc1`, the AC50 is > 42 µM (inactive).

`NC(=O)c1cccc2cc3ccccc3cc12`: the AC50 is > 42 µM (inactive).

As for `CCCn1c(=O)c2ccccc2n2c(SCC(=O)N3CCc4ccccc4C3)nnc12`, the AC50 is > 42 µM (inactive).

With `O=C(Nc1ccc([N+](=O)[O-])cn1)C1CC1`, the AC50 is > 42 µM (inactive).

For the molecule `COC(=O)CCC(=O)OC1(C)C(=O)C2=CN(CCc3c[nH]c4ccccc34)C(c3ccc(OC)cc3)=CC2=C(Br)C1=O` (centres undefined), the AC50 was > 42 µM (inactive).

As to `Cc1cc2c(cc1C)-c1nnc(-c3ccc4ccccc4n3)n1C(C)(C)C2`, the AC50 is > 42 µM (inactive).

As for `Cc1cc(NC(=O)CC2CCCC2)ccc1Br`, the AC50 is > 42 µM (inactive).

Take `COc1ccccc1NC(=O)N1CCN(C(=O)Nc2ccccc2OC)CC1`: the AC50 is > 42 µM (inactive).

In the case of `COc1cccc(C(=O)NCc2ccc(-c3nc4ccccc4s3)cc2)c1`, the AC50 was > 42 µM (inactive).

Turning to `CC(=O)Nc1cc2nn(-c3ccccc3)nc2cc1Cl`, the AC50 was > 42 µM (inactive).

On to `COc1ccc(C(=O)N(CCc2ccccc2)Cc2ccccc2)c(OC)n1`, for which the AC50 is > 42 µM (inactive).

With `COc1ccccc1CNc1ncnc2c1nnn2Cc1ccccc1`, the AC50 was > 42 µM (inactive).

As to `Cc1cc(=O)c(C(=O)O)cn1Nc1ccc(Cl)cc1`, the AC50 was > 42 µM (inactive).

As to `COCCn1c(SCC(=O)Nc2nc3ccccc3s2)nnc1-c1ccoc1C`, the AC50 was > 42 µM (inactive).

Take `COc1ccc(CCNC(=O)CC2C(=O)NCCN2CC(C)(C)C)cc1` (centres undefined): the AC50 was > 42 µM (inactive).

Consider `CCCOC(=O)c1ccc(O)c(OC)c1`, for which the AC50 is > 42 µM (inactive).

Take `Cc1ccc(NC(=O)CCS(=O)(=O)c2ccc3nc(C)sc3c2)cc1`: the AC50 was > 42 µM (inactive).

As for `COC(=O)c1ccc2[nH]c(C(C)(C)O)c(C)c2c1`, the AC50 was > 42 µM (inactive).

For the molecule `CCn1c(SCC(=O)Nc2ccc(OCc3ccccc3)cc2)nnc1-c1ccco1`, the AC50 is > 42 µM (inactive).

On to `Cc1cc(-c2ccc(Cl)cc2Cl)c(C#N)c(=O)[nH]1`, for which the AC50 is > 42 µM (inactive).

For `CN(CC(=O)NCc1cccs1)S(=O)(=O)c1cccc2nsnc12`, the AC50 was > 42 µM (inactive).

For `CCOc1ccc(N(CC(=O)NC2CCC(C)CC2)S(=O)(=O)c2c(C)noc2C)cc1` (centres undefined), the AC50 was > 42 µM (inactive).

Turning to `Cc1ccc(N2C(=O)c3cccc4c(N5CCN(C)CC5)ccc(c34)C2=O)c2cccnc12`, the AC50 is > 42 µM (inactive).

Consider `COc1ccccc1CNC(=O)CN(c1ccc(C)cc1)S(=O)(=O)c1c(C)n[nH]c1C`, for which the AC50 was > 42 µM (inactive).

Take `O=CNCCCc1nc2ccccc2n1CCc1ccccc1`: the AC50 was > 42 µM (inactive).

Regarding `CCCCOc1ccc(C(=O)Nc2ccc(CN3CCOCC3)cc2)cc1`, the AC50 is > 42 µM (inactive).

For the molecule `Cc1cc(C)cc(NC(=O)C2CCCN(S(=O)(=O)c3ccc4[nH]c(=O)ccc4c3)C2)c1` (centres undefined), the AC50 was > 42 µM (inactive).

As for `O=C(CSc1nnc2ccccn12)NNC(=O)c1ccc(Cl)cc1`, the AC50 is > 42 µM (inactive).

In the case of `c1ccc(OCCCc2nc(-c3cccnc3)no2)cc1`, the AC50 was > 42 µM (inactive).

As for `COCCCNCC(O)COc1cccc2[nH]c(C)cc12` (centres undefined), the AC50 is > 42 µM (inactive).

These data come from PubChem BioAssay AID463199 (Broad Institute, 2010).
